Assay results published in PubChem BioAssay (NCI).
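Exposure lasted 48 hours, with cells grown in 96-well plates and compounds tested at five concentrations. TGI denotes the concentration required for complete inhibition of growth.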

Columns and labels:
Assay in all cases: NCI tumour cell line growth inhibition, 48 h
KM20L2 colon = test system: KM20L2 colon
DLD-1 colon = test system: DLD-1 colon
RXF-631 renal = test system: RXF-631 renal
M19-MEL melanoma = test system: M19-MEL melanoma
HOP-18 NSCLC = test system: HOP-18 NSCLC
DMS 273 small cell lung = test system: DMS 273 small cell lung
XF 498 CNS = test system: XF 498 CNS
SN12K1 renal = test system: SN12K1 renal
P388 leukemia = test system: P388 leukemia
P388/ADR leukemia = test system: P388/ADR leukemia
DMS 114 small cell lung = test system: DMS 114 small cell lung

Compound	TGI (KM20L2 colon) [µM]	TGI (DLD-1 colon) [µM]	TGI (RXF-631 renal) [µM]	TGI (M19-MEL melanoma) [µM]	TGI (HOP-18 NSCLC) [µM]	TGI (DMS 273 small cell lung) [µM]	TGI (XF 498 CNS) [µM]	TGI (SN12K1 renal) [µM]	TGI (P388 leukemia) [µM]	TGI (P388/ADR leukemia) [µM]	TGI (DMS 114 small cell lung) [µM]
CSc1nsc(-c2ccccc2)[s+]1	> 100	> 100	> 100	> 100	> 100	> 100	–	–	–	–	–
CCCSCC(P(=O)(O)O)P(=O)(O)O	> 100	> 100	–	> 100	> 100	> 100	> 100	> 100	> 100	> 100	> 100
Cc1cn(C2CC(O)C(CO)O2)c(=O)[nH]c1=O (stereo unspecified)	> 5000	> 5000	–	> 5000	> 5000	> 5000	366	4530	1970	2650	> 4670
